Laboratory results reported in paper PMC9693575, “Isopropyl Amino Acid Esters Ionic Liquids as Vehicles for Non-Steroidal Anti-Inflammatory Drugs in Potential Topical Drug Delivery Systems with Antimicrobial Activity” (International Journal of Molecular Sciences, 2022).
Where two headings read alike, the source gives them in different places.

How the values were obtained:
[1] = system: Staphylococcus epidermidis; assay: Disc diffusion antimicrobial susceptibility test, Staphylococcus epidermidis; assay type: cell-based; set-up: key to Inhibition diameter: -: no growth of the organism
Description: (§1) The plates were incubated for 24 h at 37 °C.

[2] = Solubility in water and phosphate buffers; conditions: for Solubility in Water, as active substance: deionized water, 25 °C; for Solubility in Water, as active substance / Solubility in Phosphate Buffer pH = 5.4, as active substance / Solubility in Phosphate Buffer pH = 7.4, as active substance: AS = unmodified acid; for Solubility in Phosphate Buffer pH = 5.4, as active substance: pH 5.4, 25 °C; for Solubility in Phosphate Buffer pH = 7.4, as active substance: pH 7.4, 25 °C
Text: This study aims to compare the influence of amino acid structure on the physicochemical properties of NSAID salts with the isopropyl ester of amino acids.

[3] = n-octanol-water partition coefficient (logP), shake flask method; assay type: physicochemical; conditions: n-octanol-water, shake flask; read-out: LogP
[4] = pKa / pKB by potentiometric acid-base titration and formation constant log(KS); conditions: calculated from pKA of acid and pKB of base
Description: Determination of formation constant pKs
Zabrze, Poland). For the measurement of pKA acids, 0.1 M NaOH was used. In order to
ester hydrochloride, HCl aqueous solution, was added in an amount that allowed reach-
After that, an acid-base titration was made out by adding dropwise 5 mM

Escherichia coli = assay: Disc diffusion antimicrobial susceptibility test, Escherichia coli; assay type: cell-based; set-up: key to Inhibition diameter: -: no growth of the organism; conditions: for zone of inhibition at 400000 µg/mL: solution transferred to disc 400 mg cm^−3; for zone of inhibition at 600000 µg/mL: solution transferred to disc 600 mg cm^−3
Description: as §1

[5] = Solubility in organic solvents (modified Vogel's method); conditions: 25 °C
[6] = Thermogravimetric analysis (thermal stability); conditions: air atmosphere, 10 °C min−1
Description: The thermal stabilities of the obtained NSAIDs isopropyl ester amino acid salts were investigated. […] The beginning of thermal degradation was evaluated based on the value of onset of the TG curve, which occurs in the first phase of the process. […]
Thermogravimetric analysis (TG)
Thermogravimetric analysis was carried out using Netzsch Proteus Thermal Analy- […]
Samples of 5–8 mg were loaded in Al2O3 […]
ment was performed in an air atmosphere (25 cm3min−1) with nitrogen flow (10 cm3min−1) […]
Differential scanning calorimetry (DSC)
Phase transformation temperatures were determined on a PerkinElmer DSC-7 (Rot-gau, Germany). The samples of 3–5 mg were loaded on the aluminum pan with a crimped lid. Measurements were carried out in a nitrogen atmosphere (20 cm3 min-1). The rate of heating/cooling was 5°C min-1. […]
tained for 30 min inside the furnace, then cooled to 0°C to condition the sample and the crucible. After that, heating was conducted to the specified temperature, followed by cool-ing. Unless otherwise stated, two complete cycles of heating and cooling were performed.
The specified maximum temperature was individual for each compound, determined from TG analysis, and it was at least 10°C lower than the onset decomposition tempera-ture. Temperatures reported from DSC data are curve peaks, the melting points being endothermic upon heating and crystallization point being exothermic upon cooling. Lead, indium, tin, and zinc were used as standards to calibrate the temperature. Indium was used for enthalpy measurement calibration. […]

Micrococcus Luteus = assay: Disc diffusion antimicrobial susceptibility test, Micrococcus luteus; assay type: cell-based; set-up: key to Inhibition diameter: -: no growth of the organism; conditions: for zone of inhibition at 600000 µg/mL: solution transferred to disc 600 mg cm^−3; for zone of inhibition at 800000 µg/mL: solution transferred to disc 800 mg cm^−3
[7] = cited from earlier work
[8] = 25 °C; cited from earlier work
[9] = solution transferred to disc 25 mg cm^−3
[10] = solution transferred to disc 50 mg cm^−3
[11] = solution transferred to disc 100 mg cm^−3
[12] = solution transferred to disc 200 mg cm^−3
[13] = solution transferred to disc 400 mg cm^−3
[14] = Escherichia coli, 24 h, read-out: Inhibition diameter
[15] = Micrococcus luteus, 24 h, read-out: Inhibition diameter

Compound: CC(C)OC(=O)[C@@H](N)[C@@H](C)O.O=C(O)c1ccccc1O [[L-ThrOiPr][SA], L-threonine isopropyl ester salicylate]
- Inhibition diameter [1, 9]: -
- Inhibition diameter [1, 10]: -
- Inhibition diameter [1, 11]: -
- Inhibition diameter [1, 12]: -
- Inhibition diameter [1, 13]: -
- Inhibition diameter ([1]; solution transferred to disc 600 mg cm^−3): -
- Inhibition diameter ([1]; solution transferred to disc 800 mg cm^−3): -
- Inhibition diameter ([1]; solution transferred to disc 1000 mg cm^−3): -
- Solubility in Water, as active substance [2]: 17.925 ± 0.241 gAS dm^−3
- Solubility in Phosphate Buffer pH = 5.4, as active substance [2]: 13.978 ± 0.018 gAS dm^−3
- solubility thermodynamic ([2]; pH 5.4, aqueous buffer): 30.189 ± 0.018 mg/mL
- Solubility in Phosphate Buffer pH = 7.4, as active substance [2]: 18.777 ± 0.125 gAS dm^−3
- solubility thermodynamic ([2]; pH 7.4, aqueous buffer): 40.76 ± 0.125 mg/mL
- solubility thermodynamic ([2]; water): 38.71 ± 0.241 mg/mL
- logP [3]: 1.55 ± 0.021
- Log(KS) formation constant [4]: 7.94
- zone of inhibition at 400000 µg/mL (Escherichia coli; [14]): 7.3 ± 0.2 mm
- zone of inhibition at 600000 µg/mL (Escherichia coli; [14]): 9.3 ± 0.4 mm
- Inhibition diameter (Escherichia coli; [9]): -
- Inhibition diameter (Escherichia coli; [10]): -
- Inhibition diameter (Escherichia coli; [11]): -
- Inhibition diameter (Escherichia coli; [12]): -
- Solubility in Chloroform (39.1) [5]: ○ (soluble >100 mg cm^−3)
- Solubility in DMSO (45.1) [5]: ○ (soluble >100 mg cm^−3)
- Solubility in Dichloromethane (40.7) [5]: ○ (soluble >100 mg cm^−3)
- Solubility in Diethyl Ether (34.5) [5]: ● (insoluble <33 mg cm^−3)
- Solubility in Ethanol (59.1) [5]: ○ (soluble >100 mg cm^−3)
- Solubility in Ethyl Acetate (38.1) [5]: ○ (soluble >100 mg cm^−3)
- Solubility in Hexane (31.0) [5]: ● (insoluble <33 mg cm^−3)
- Solubility in Toluene (33.9) [5]: ● (insoluble <33 mg cm^−3)
- TDTGmax, maximum decomposition temperature ([6]; DTG): 191.4 °C
- TTGonset, the onset of the thermal degradation ([6]; TG): 127.2 °C
- concentrations at which the antimicrobial effect was observed (Micrococcus Luteus; M. Luteus): in all tested concentration ranges
- zone of inhibition at 25000 µg/mL (Micrococcus Luteus; Micrococcus luteus, 24 h, solution transferred to disc 25 mg cm^−3, read-out: Inhibition diameter): 6.3 ± 0.1 mm
- zone of inhibition at 50000 µg/mL (Micrococcus Luteus; Micrococcus luteus, 24 h, solution transferred to disc 50 mg cm^−3, read-out: Inhibition diameter): 6.6 ± 0.2 mm
- zone of inhibition at 100000 µg/mL (Micrococcus Luteus; Micrococcus luteus, 24 h, solution transferred to disc 100 mg cm^−3, read-out: Inhibition diameter): 7 ± 0.1 mm
- zone of inhibition at 200000 µg/mL (Micrococcus Luteus; Micrococcus luteus, 24 h, solution transferred to disc 200 mg cm^−3, read-out: Inhibition diameter): 7.6 ± 0.2 mm
- zone of inhibition at 400000 µg/mL (Micrococcus Luteus; Micrococcus luteus, 24 h, solution transferred to disc 400 mg cm^−3, read-out: Inhibition diameter): 8.1 ± 0.1 mm
- zone of inhibition at 600000 µg/mL (Micrococcus Luteus; [15]): 8.7 ± 0.5 mm
- zone of inhibition at 800000 µg/mL (Micrococcus Luteus; [15]): 10.2 ± 0.7 mm

Compound: CC(C)OC(=O)C(N)C(C)C.O=C(O)c1ccccc1O [[L-ValOiPr][SA]]
- zone of inhibition at 600000 µg/mL ([1]; Staphylococcus epidermidis, 24 h, solution transferred to disc 600 mg cm^−3, read-out: Inhibition diameter): 6.7 ± 0.3 mm
- zone of inhibition at 800000 µg/mL ([1]; Staphylococcus epidermidis, 24 h, solution transferred to disc 800 mg cm^−3, read-out: Inhibition diameter): 8.4 ± 0.3 mm
- Inhibition diameter [1, 9]: -
- Inhibition diameter [1, 10]: -
- Inhibition diameter [1, 11]: -
- Inhibition diameter [1, 12]: -
- Inhibition diameter [1, 13]: -
- TDTGmax, maximum decomposition temperature ([7]; DTG): 197.6 [49] °C
- TTGonset, the onset of the thermal degradation ([7]; TG): 124.6 [49] °C
- Solubility in Water, as active substance [2]: 7.761 ± 2.044 gAS dm^−3
- Solubility in Phosphate Buffer pH = 5.4, as active substance [2]: 5.259 ± 0.014 gAS dm^−3
- solubility thermodynamic ([2]; pH 5.4, aqueous buffer): 11.32 ± 0.014 mg/mL
- Solubility in Phosphate Buffer pH = 7.4, as active substance [2]: 8.702 ± 0.027 gAS dm^−3
- solubility thermodynamic ([2]; pH 7.4, aqueous buffer): 18.73 ± 0.027 mg/mL
- solubility thermodynamic ([2]; water): 16.7 ± 2.04 mg/mL
- logP [3]: 1.61 ± 0.057
- Log(KS) formation constant [4]: 7.03
- zone of inhibition at 50000 µg/mL (Escherichia coli; Escherichia coli, 24 h, solution transferred to disc 50 mg cm^−3, read-out: Inhibition diameter): 6.2 ± 0.1 mm
- zone of inhibition at 100000 µg/mL (Escherichia coli; Escherichia coli, 24 h, solution transferred to disc 100 mg cm^−3, read-out: Inhibition diameter): 6.3 ± 0.2 mm
- zone of inhibition at 200000 µg/mL (Escherichia coli; Escherichia coli, 24 h, solution transferred to disc 200 mg cm^−3, read-out: Inhibition diameter): 7.5 ± 0.1 mm
- zone of inhibition at 400000 µg/mL (Escherichia coli; [14]): 8.9 ± 0.4 mm
- zone of inhibition at 600000 µg/mL (Escherichia coli; [14]): 12.6 ± 0.3 mm
- Inhibition diameter (Escherichia coli; [9]): -
- Solubility in Chloroform (39.1) [8]: ○ [49] (soluble >100 mg cm^−3)
- Solubility in DMSO (45.1) [8]: ○ [49] (soluble >100 mg cm^−3)
- Solubility in Dichloromethane (40.7) [8]: ○ [49] (soluble >100 mg cm^−3)
- Solubility in Diethyl Ether (34.5) [8]: ◐ [49] (partially soluble 33–100 mg cm^−3)
- Solubility in Ethanol (59.1) [8]: ○ [49] (soluble >100 mg cm^−3)
- Solubility in Ethyl Acetate (38.1) [8]: ◐ [49] (partially soluble 33–100 mg cm^−3)
- Solubility in Hexane (31.0) [8]: ● [49] (insoluble <33 mg cm^−3)
- Solubility in Toluene (33.9) [8]: ○ [49] (soluble >100 mg cm^−3)
- zone of inhibition at 600000 µg/mL (Micrococcus Luteus; [15]): 8.6 ± 0.3 mm
- zone of inhibition at 800000 µg/mL (Micrococcus Luteus; [15]): 15.9 ± 1.2 mm
- Inhibition diameter (Micrococcus Luteus; [9]): -
- Inhibition diameter (Micrococcus Luteus; [10]): -
- Inhibition diameter (Micrococcus Luteus; [11]): -
- Inhibition diameter (Micrococcus Luteus; [12]): -
- Inhibition diameter (Micrococcus Luteus; [13]): -
